Reference: US11208385B2, “N-substituted imidazole carboxylate compound, preparation method and use” (priority 2017, dated 2021)
Like-named read-outs stand apart in the source and are kept apart here.

How the values were obtained:
SD rats [1] = test system: SD rats
Procedure: 150 male SD rats weighing 250˜300 g were randomly divided into 15 groups, 10 rats for one group. […] Drugs were injected to rats via caudal vein, and the injection time was 15 seconds. The abolition of righting reflex for 30 s or above was used as the indicator producing anaesthetic effect.

SD rats [2] = test system: SD rats; remark: listed apart in the source
Procedure: 30 male SD rats weighing 250˜300 g were randomly divided into 6 groups, 5 rats for one group. […] Each drug was continually infused to rats via caudal vein, and made the righting reflex abolish, and the abolition of righting reflex was maintained for 1 hour. The wake time after drug withdrawal and the time of full recovery were recorded.

[3] = In vitro degradation experiment in rat liver homogenate (HPLC); format: in vitro ADME; conditions: for Residual rate at 5 min (%) / Residual rate at 10 min (%) / Residual rate at 20 min (%): rat liver homogenate, 37° C., 50 μg/mL
Procedure: In Vitro Degradation Experiment of Compounds.
Chromatographic condition: mobile phase is methanol: H2O=65:35, and the water phase contains 0.06% ammonium acetate; the flow rate is 1 mL/min; the column temperature is 25° C.
Apparatus: Agilent 1100 Series. Chromatographic column: Aglent Eclipse Plus C18 column, 5 μm 4.6*[…].
The linear range is 1-50 μg/mL.
After fasting for 24 h, male SD rats were treated to collect liver, and the water on the surface of liver was removed using the filter paper, then liver was weighed. […] Then, the homogenate was centrifugated at 10000 g for 20 min at the temperature of 4° C. The supernatant solution was collected, and 14 samples (2 mL) of liver homogenate were taken out and warmed to 37° C. in water bath. Each compound (content 10 mg/mL, 10 μl) was added, respectively, to make a concentration of 50 μg/mL in liver homogenate.
[…] After centrifugation, the supernatant solution was taken out and injected. The concentration of each compound at each time point was detected, that was divided by the initial concentration of each compound, to obtain the degradation ratio of each compound.

11-β hydroxylase = target: T1, 11-β hydroxylase (Homo sapiens, UniProt P15538); conditions: 11-β hydroxylase versus GABAA receptor; cited from earlier work
T1 sequence (P15538 25-503): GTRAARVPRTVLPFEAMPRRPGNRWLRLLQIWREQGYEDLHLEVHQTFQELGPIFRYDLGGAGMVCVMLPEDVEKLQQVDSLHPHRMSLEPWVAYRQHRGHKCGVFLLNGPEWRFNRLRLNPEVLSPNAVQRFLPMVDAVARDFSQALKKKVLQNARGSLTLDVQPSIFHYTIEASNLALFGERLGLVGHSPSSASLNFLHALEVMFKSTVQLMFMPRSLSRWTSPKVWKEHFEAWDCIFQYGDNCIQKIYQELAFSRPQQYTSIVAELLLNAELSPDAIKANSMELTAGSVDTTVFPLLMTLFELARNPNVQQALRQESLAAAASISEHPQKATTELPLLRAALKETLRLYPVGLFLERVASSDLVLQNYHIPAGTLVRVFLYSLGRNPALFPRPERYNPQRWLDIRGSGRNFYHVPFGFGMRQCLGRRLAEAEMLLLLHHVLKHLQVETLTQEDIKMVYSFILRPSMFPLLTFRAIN

[4] = in vivo, 3 mg/kg; cited from earlier work
corticosterone = experiment: Serum corticosterone after dexamethasone suppression and ACTH stimulation in rats (ELISA); conditions: ACTH stimulation
Procedure: Male rats (250˜300 g) were chosen as test animals, and the content of corticosterone in serum of rats was measured using ELISA kit and ELISA reader. 65 SD rats were randomly divided into 13 groups, five rats for each group. […] 30 min After administration of ACTH, the concentrations of two cortical hormones in animal body were determined.

[5] = single iv dose of 2ED50, 10 rats per group
[6] = single iv dose of 2ED50, from abolition to recovery of righting reflex
[7] = single iv dose of 2ED50, from recovery of righting reflex to free walk
[8] = after 1 h continual infusion, from recovery of righting reflex to free walk
[9] = after 1 h continual infusion, recovery time of righting reflex after discontinuance

| SMILES | Residual rate at 5 min (%) [3] [%] | Residual rate at 10 min (%) [3] [%] | Residual rate at 20 min (%) [3] [%] | Incidence rate (%) of muscle tremor (SD rats [1]; [5]) [%] | Time of keeping anaesthesia (SD rats [1]; [6]) [min] | Time of complete recovery (SD rats [1]; [7]) | Time of complete recovery (SD rats [2]; [8]) [min] | Wake time after drug withdrawal (SD rats [2]; [9]) [min] | Incidence rate (%) of muscle tremor (SD rats [2]; continual infusion for 1 h) [%] | further results |
| --- | --- | --- | --- | --- | --- | --- | --- | --- | --- | --- |
| COC(=O)C1(OC(=O)c2cncn2[C@H](C)c2ccccc2)CC1 [CPMM, reference compound] | 0 | 0 | 0 |  |  |  |  |  |  | Incidence rate (%) of muscle tremor (SD rats [1]; male, SD, rat, in vivo, iv): 80%; Onset of anaesthesia (SD rats [1]; rat, in vivo): immediately anesthetize the rats; Time of complete recovery (SD rats [1]; rat, in vivo, iv): 2.3 ± 2.1 min; Time of keeping anaesthesia (SD rats [1]; rat, in vivo, iv): 2.5 ± 1.3 min; Incidence rate (%) of muscle tremor (SD rats [2]; male, SD, rat, in vivo): 90%; Time of complete recovery (SD rats [2]; rat, in vivo): 25 ± 9 min; Wake time after drug withdrawal (SD rats [2]; rat, in vivo): 12 ± 7 min |
| CCOC(=O)c1cncn1[C@H](C)c1ccccc1 [Etomidate, reference compound] | 97.9 | 95.9 | 95.9 | 40 | 6.3 ± 2.8 | 7.2 ± 1.7 min | 85 ± 29 | 18 ± 10 | 60 | Onset of anaesthesia (SD rats [1]; equivalent dose of anesthesia): immediately anesthetize the rats; Combining capacity with 11-β hydroxylase relative to GABAA receptor (11-β hydroxylase): 100 times; Minimum effective concentration producing anaesthetic effect in plasma [4]: 200 ng/mL; Minimum effective concentration to inhibit the synthesis of cortical hormones [4]: 8 ng/mL; Time of maintaining the drug concentration of >8 ng/mL in plasma [4]: 8 h; Time of maintaining the drug concentration of >200 ng/mL in plasma [4]: 8 min; Effect on self-synthesis of adrenal cortical hormones (corticosterone): significantly suppress; Decomposition under the action of liver homogenate of rats ([3]; comparative experiment): slowly decomposed |
| COC(=O)OCOC(=O)c1cncn1[C@H](C)c1ccccc1 [Example 1] | 0 | 0 | 0 | 0 | 1.5 ± 0.6 | 1.4 ± 0.5 min | 4.1 ± 1.1 | 2.1 ± 1.1 | 0 |  |
| CCOC(=O)OCOC(=O)c1cncn1[C@H](C)c1ccccc1 [Example 2] | 0 | 0 | 0 | 0 | 1 ± 0.5 | 2.5 ± 0.4 min | 3.1 ± 1.8 | 3.1 ± 1.2 | 0 |  |
| CC(C)OC(=O)OCOC(=O)c1cncn1[C@H](C)c1ccccc1 [Example 3] | 0 | 0 | 0 | 0 | 2.1 ± 0.3 | 1.3 ± 0.5 min | 1.9 ± 0.9 | 3.4 ± 1.1 | 0 |  |
| C[C@H](c1ccccc1)n1cncc1C(=O)OCOC(=O)OC(C)(C)C [Example 4] | 89.3 | 60.1 | 43.6 | 0 | 8.3 ± 1.4 | 6.1 ± 1.6 min | 90 ± 37 | 25 ± 24 | 20 |  |
| CC(C)COC(=O)OCOC(=O)c1cncn1[C@H](C)c1ccccc1 [Example 5] | 0 | 0 | 0 | 10 | 3 ± 1.1 | 3.3 ± 2.1 min | 3.9 ± 2.6 | 6.2 ± 1.2 | 10 |  |
| CCC(C)OC(=O)OCOC(=O)c1cncn1[C@H](C)c1ccccc1 (stereo partly shown) [Example 6] | 4.7 | 0.9 | 0 | 0 | 2.4 ± 0.6 | 1.7 ± 0.4 min | 2.1 ± 1.5 | 3.1 ± 1.9 | 0 |  |
| CC(C)OC(=O)OC(C)OC(=O)c1cncn1[C@H](C)c1ccccc1 (stereo partly shown) [Example 8] | 2.1 | 0 | 0 | 10 | 2.3 ± 0.3 | 1.9 ± 1^ min | 1.8 ± 0.6 | 4.9 ± 2.7 | 10 |  |
| C[C@H](c1ccccc1)n1cncc1C(=O)OCOC(=O)OC(C(F)(F)F)C(F)(F)F [Example 9] | 72.1 | 50.3 | 39.8 | 0 | 8.1 ± 2.3 | 7.2 ± 2.9 min | 55 ± 38 | 20 ± 14 | 0 |  |
| CCC(C)OC(=O)OCOC(=O)c1cncn1[C@H](C)c1ccccc1.Cl (stereo partly shown) [Example 10] |  |  |  | 0 | 2.5 ± 0.7 | 2.0 ± 0.9 min |  |  |  |  |
| CCC(C)OC(=O)OCOC(=O)c1cncn1[C@H](C)c1ccccc1 (stereo partly shown) [Example 11] |  |  |  | 0 | 2.8 ± 1.1 | 2.1 ± 1.2 min |  |  |  |  |
| CC(C)OC(=O)OCOC(=O)c1cncn1[C@H](C)c1ccccc1 [Example 12] |  |  |  | 0 | 2.2 ± 0.5 | 1.2 ± 0.6 min |  |  |  |  |
| CC[C@@H](C)OC(=O)OCOC(=O)c1cncn1[C@H](C)c1ccccc1 [Example 16] | 3.2 | 0 | 0 | 0 | 3.1 ± 0.4 | 2.1 ± 0.5 min | 2.1 ± 0.5 | 4.5 ± 2.2 | 0 |  |
| CC[C@H](C)OC(=O)OCOC(=O)c1cncn1[C@H](C)c1ccccc1 [Example 17] | 3.1 | 0 | 0 | 0 | 2.2 ± 0.3 | 1.6 ± 0.2 min |  |  |  |  |
| CCC(OC(=O)OC(C)C)OC(=O)c1cncn1[C@H](C)c1ccccc1 (stereo partly shown) [Example 28] | 5.3 | 0 | 0 | 0 | 3.5 ± 1.1 | 2.1 ± 0.5 min | 22.5 ± 4.8 | 10.1 ± 2.3 | 0 |  |
| COC(=O)CCOC(=O)c1cncn1[C@H](C)c1ccccc1 [MOC-ET, reference compound] | 0 | 0 | 0 |  |  |  |  |  |  | Cortex function of test animals after drug withdrawal (corticosterone; 30 min after drug withdrawal): obviously recovered |
